Patent publication US20140309295A1, “ANTIEPILEPTIC, HYPOCHOLESTEROLEMIC AND NEUROPROTECTIVE COMPOUND” (NEURON BIOPHARMA, S.A., priority 2009, published 2014)

Tested on: ApoB100 mice
Experiment: Hypocholesterolemic effect, oral 28 days, endogenous hyperlipidemia model
Format: in vivo
Experimental: All the animals included for the experimental process were 12-week old female mice. The experiments were conducted strictly following the Guidance on the Operation of Animals (Scientific Procedures, Act. 1986). The animals had their respective quarantine period and were treated with maximum precaution to minimize possible contaminations for inoculations and handling.
The control group received this same vehicle. Before starting the treatments and at 7, 21 and 28 days of starting them, retro-orbital blood extractions after fasting for 16 hours were carried out. The plasma was obtained from said blood, in which the total cholesterol (TC), free cholesterol (FC), cholesterol (EC), HDL-c, LDL-c, VLDL-c and apoB100 levels were evaluated by enzymatic and spectrophotometric techniques. In order to check if the effect at the lipid level involved an alteration of the oxidative stress, the redox state in the plasmas obtained was furthermore evaluated by means of the TEAC (Trolox Antioxidant Capacity Assay) technique. This technique determines the antioxidant capacity in vitro, giving an idea of the redox state of the sample analyzed by means of the absorbance capacity by electron transfer. The different components of the reaction, myoglobin, ABTS (2,2-azino-bis-(3-ethylbenzthiazoline-sulfonic acid), […] H2O2 were added to the plasmas diluted 1/10 in PBS (10 μL) in a 96-well plate. After 3 minutes of incubation, the absorbance was measured at 405 nm (with a reference of 600 nm).

CCC(CC)C(=O)O[C@H]1C[C@@H](C)C=C2C=C[C@H](C)[C@H](CC[C@@H]3C[C@@H](O)CC(=O)O3)[C@H]21 [NST0037, (1S,2S,6R,8S,8aR)-1,2,6,7,8,8a-hexahydro-3,7-dimethyl-8-[2-[(2R,4R)-tetrahydro-4-hydroxy-6-oxo-2H-pyran-2-yl]ethyl]-1-naphthalenyl-2-ethyl-butyrate] was tested, and the “FC and EC levels” value (50 mg/kg oral, 7, 21 and 28 days) was “reduction of the FC and EC levels”, the HDL (50 mg/kg oral, 28 days) was “reduction of VLDL and HDL” and the LDL (50 mg/kg oral, 28 days) was “smaller increase of LDL”. For the same compound, the VLDL (50 mg/kg oral, 28 days) was “reduction of VLDL”, the “apolipoprotein B (apoB) levels” value (50 mg/kg oral, 28 days) was “visibly reduced” and the “redox state of the plasmas (TEAC)” value (50 mg/kg oral, 28 days) was “decrease the redox state”. The “plasma total cholesterol levels” value (50 mg/kg oral, 28 days, female apoB100 mice) was “significantly reducing the plasma total cholesterol levels”.
